Data from patent US20220389009A1, “SUBSTITUTED 1,6-NAPHTHYRIDINE INHIBITORS OF CDK5” (Goldfinch Bio, Inc., priority 2019, published 2022).
Read-outs that look alike come from different tables or passages of the source.

Experiments:
CDK2/CycA2 = CDK2/CycA2 (Homo sapiens, UniProt P24941); assay: CDK2 mobility shift assay (enzymatic activity of CDK2/CycA2); format: biochemical
Method in brief: (§1)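 Phosphorylation of 1.5 μM fluorescent peptide was read by microfluidic mobility shift and fitted to IC50 (4-parameter), normalized to no-compound and no-enzyme controls. CDK5/p25 ran at 0.154 nM with […] ATP for 60 min, using peptide 29. CDK2/CycA2 ran at 1.25 nM with 37 μM ATP for 120 min, using peptide 18. Both included a 30-min compound preincubation in pH 7.5 buffer.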

CDK5/p25 = CDK5/p25 (Homo sapiens, UniProt Q00535); assay: CDK5 mobility shift assay (enzymatic activity of CDK5/p25); format: biochemical; conditions: for CDK5/CDK2 specificity: fold more active against CDK5 than CDK2
Method in brief: as §1

[1] = 1.25 nM CDK2/CycA2, 37 μM ATP, FL Peptide 18, 120 min at room temperature, read-out: CDK2 IC50
[2] = 0.154 nM CDK5/p25, FL peptide 29, 60 min at room temperature, read-out: CDK5 IC50

CDK5/p25, sequence (Q00535 whole entry): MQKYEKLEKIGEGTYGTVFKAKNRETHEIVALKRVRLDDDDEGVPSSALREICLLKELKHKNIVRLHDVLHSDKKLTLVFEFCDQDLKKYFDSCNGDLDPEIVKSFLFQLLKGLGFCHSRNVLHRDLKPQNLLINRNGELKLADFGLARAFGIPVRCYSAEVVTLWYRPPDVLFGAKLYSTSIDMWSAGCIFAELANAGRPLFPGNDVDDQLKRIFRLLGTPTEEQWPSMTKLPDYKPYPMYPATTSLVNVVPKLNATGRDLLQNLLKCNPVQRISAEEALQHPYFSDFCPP
CDK5/p25, sequence (Q15078 99-307 partner limits assumed): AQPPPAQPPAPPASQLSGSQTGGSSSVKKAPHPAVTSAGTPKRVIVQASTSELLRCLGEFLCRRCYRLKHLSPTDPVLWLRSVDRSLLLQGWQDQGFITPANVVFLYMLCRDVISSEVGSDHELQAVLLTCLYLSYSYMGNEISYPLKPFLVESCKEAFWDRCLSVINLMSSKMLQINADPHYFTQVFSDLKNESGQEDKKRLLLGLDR

Structure (SMILES) | IC50 (CDK2/CycA2; [1]) [nM] | IC50 (CDK5/p25; [2]) [nM] | CDK5/CDK2 specificity (CDK5/p25) | IC50 (CDK2/CycA2; CDK2 IC50) [nM] | IC50 (CDK5/p25; CDK5 IC50) [nM]
O=C(O)CN(c1ccc2cnc(Nc3ccc(-n4ccc(CO)n4)cc3F)cc2n1)[C@H]1CC[C@H](O)CC1 [Compound 110, [[7-([2-fluoro-4-[3-(hydroxymethyl)pyrazol-1-yl]phenyl]amino)-1,6-naphthyridin-2-yl][(1r,4r)-4-hydroxycyclohexyl]amino]acetic acid] | > 1000 | 100 to 1000 | + (10-fold or less more active against CDK5 than CDK2) | – | –
CN1CCC(C(C)(O)c2ccc3cnc(Nc4ccc(-c5cccc(C#N)c5)cc4F)cc3n2)CC1 (stereo not drawn) [Compound 335] | 10 to 100 | < 10 | ++ (greater than 10-fold and less than or equal to 100-fold more active against CDK5 than CDK2) | – | –
CN(C)Cc1cccc(Nc2cc3nc(S(=O)(=O)C4CCN(C)CC4)ccc3cn2)c1 [Compound 280] | 100 to 1000 | 10 to 100 | + (10-fold or less more active against CDK5 than CDK2) | – | –
CN1CCC(C(C)(O)c2ccc3cnc(Nc4ccc(S(C)(=O)=O)cc4)cc3n2)CC1 (stereo not drawn) [Compound 370] | < 10 | < 10 | + (10-fold or less more active against CDK5 than CDK2) | – | –
Fc1cc(-n2cccn2)ccc1Nc1cc2nc(CC3CCNCC3)ccc2cn1 [Compound 124, N-[2-fluoro-4-(pyrazol-1-yl)phenyl]-2-(piperidin-4-ylmethyl)-1,6-naphthyridin-7-amine] | 100 to 1000 | 10 to 100 | ++ (greater than 10-fold and less than or equal to 100-fold more active against CDK5 than CDK2) | – | –
O=C(O)[C@@H]1CNCC[C@H]1Nc1ccc2cnc(Nc3ccc(-n4ccc(CO)n4)cc3F)cc2n1 [Compound 114, (3R,4R)-4-[[7-([2-fluoro-4-[3-(hydroxymethyl)pyrazol-1-yl]phenyl]amino)-1,6-naphthyridin-2-yl]amino]piperidine-3-carboxylic acid] | > 1000 | > 1000 | + (10-fold or less more active against CDK5 than CDK2) | – | –
OCCN(c1ccc2cnc(Nc3ccc(-n4ccc(CO)n4)cc3F)cc2n1)C1CCNCC1 [Compound 105, 2-[[7-([2-fluoro-4-[3-(hydroxymethyl)pyrazol-1-yl]phenyl]amino)-1,6-naphthyridin-2-yl](piperidin-4-yl)amino]ethanol] | 100 to 1000 | 10 to 100 | ++ (greater than 10-fold and less than or equal to 100-fold more active against CDK5 than CDK2) | – | –
CN1CCC(C(O)c2ccc3cnc(Nc4ccc(-n5cccn5)cc4F)cc3n2)CC1 (single isomer, unassigned) [Compound 175, (7-[[2-fluoro-4-(pyrazol-1-yl)phenyl]amino]-1,6-naphthyridin-2-yl) (1-methylpiperidin-4-yl)methanol] | 100 to 1000 | < 10 | +++ (greater than 100-fold more active against CDK5 than CDK2) | – | –
Nc1cccc(C(=O)Nc2cc3nc(SC4CCNCC4)ccc3cn2)c1 [Compound 136, 3-amino-N-[2-(piperidin-4-ylsulfanyl)-1,6-naphthyridin-7-yl]benzamide] | 100 to 1000 | 100 to 1000 | + (10-fold or less more active against CDK5 than CDK2) | – | –
CN1CCC(C(C)(O)c2ccc3cnc(Nc4ccc(CN5CCOCC5)cc4F)cc3n2)CC1 (stereo not drawn) [Compound 353] | 10 to 100 | < 10 | ++ (greater than 10-fold and less than or equal to 100-fold more active against CDK5 than CDK2) | – | –
CN1CCC(C(F)(F)c2ccc3cnc(Nc4ccc(-n5cccn5)cc4F)cc3n2)CC1 [Compound 291, 2-[difluoro(1-methylpiperidin-4-yl)methyl]-N-[2-fluoro-4-(pyrazol-1-yl)phenyl]-1,6-naphthyridin-7-amine] | 10 to 100 | < 10 | ++ (greater than 10-fold and less than or equal to 100-fold more active against CDK5 than CDK2) | – | –
CN1CCC(C(C)(O)c2ccc3cnc(Nc4cccc(C(N)=O)c4)cc3n2)CC1 (stereo not drawn) [Compound 372] | < 10 | < 10 | ++ (greater than 10-fold and less than or equal to 100-fold more active against CDK5 than CDK2) | – | –
CN1CCC(C(C)(O)c2ccc3cnc(Nc4ccc(-c5cccc(=O)n5C)cc4F)cc3n2)CC1 (stereo not drawn) [Compound 354] | 10 to 100 | < 10 | ++ (greater than 10-fold and less than or equal to 100-fold more active against CDK5 than CDK2) | – | –
CN1CCC(C(C)(O)c2ccc3cnc(Nc4ccc(-c5cccn(C)c5=O)cc4F)cc3n2)CC1 (stereo not drawn) [Compound 352] | 100 to 1000 | < 10 | +++ (greater than 100-fold more active against CDK5 than CDK2) | – | –
O=C(O)CN(c1ccc2cnc(Nc3ccc(-n4ccc(CO)n4)cc3F)cc2n1)C1CCNCC1 [Compound 101, [[7-([2-fluoro-4-[3-(hydroxymethyl)pyrazol-1-yl]phenyl]amino)-1,6-naphthyridin-2-yl](piperidin-4-yl)amino]acetic acid] | – | – | ++ (greater than 10-fold and less than or equal to 100-fold more active against CDK5 than CDK2) | > 1000 | 10 to 100
CN1CCC(C(C)(O)c2ccc3cnc(Nc4ccc(-c5ccc(=O)[nH]c5)cc4F)cc3n2)CC1 (stereo not drawn) [Compound 383] | 10 to 100 | < 10 | ++ (greater than 10-fold and less than or equal to 100-fold more active against CDK5 than CDK2) | – | –
CC(c1ccc2cnc(Nc3ccc(-n4ccc(C(=O)O)n4)cc3F)cc2n1)C1CCN(C)CC1 (stereo not drawn) [Compound 324] | > 1000 | 10 to 100 | +++ (greater than 100-fold more active against CDK5 than CDK2) | – | –

The next lines start with results.

IC50 (CDK2/CycA2; [1]) [nM] | IC50 (CDK5/p25; [2]) [nM] | Structure (SMILES) | CDK5/CDK2 specificity (CDK5/p25) | IC50 (CDK2/CycA2; CDK2 IC50) [nM] | IC50 (CDK5/p25; CDK5 IC50) [nM]
10 to 100 | < 10 | CN1CCC(C(C)(O)c2ccc3cnc(Nc4ccc(-c5ccc(=O)n(C)c5)cc4F)cc3n2)CC1 (stereo not drawn) [Compound 351] | ++ (greater than 10-fold and less than or equal to 100-fold more active against CDK5 than CDK2) | – | –
100 to 1000 | < 10 | CN(C)C(=O)c1ccn(-c2ccc(Nc3cc4nc(S(=O)(=O)C5CCN(CC6COC6)CC5)ccc4cn3)c(F)c2)n1 [Compound 338] | +++ (greater than 100-fold more active against CDK5 than CDK2) | – | –
100 to 1000 | < 10 | N#Cc1cccc(-c2ccc(Nc3cc4nc(C(O)C5CCN(CCO)CC5)ccc4cn3)c(F)c2)c1 (single isomer, unassigned) [Compound 250, 3′-fluoro-4′-[(2-[hydroxy[1-(2-hydroxyethyl)piperidin-4-yl]methyl]-1,6-naphthyridin-7-yl)amino]-[1,1′-biphenyl]-3-carbonitrile] | ++ (greater than 10-fold and less than or equal to 100-fold more active against CDK5 than CDK2) | – | –
10 to 100 | < 10 | Fc1cc(-n2cccn2)ccc1Nc1cc2nc(C(F)(F)C3CCNCC3)ccc2cn1 [Compound 169, 2-[difluoro(piperidin-4-yl)methyl]-N-[2-fluoro-4-(pyrazol-1-yl)phenyl]-1,6-naphthyridin-7-amine] | ++ (greater than 10-fold and less than or equal to 100-fold more active against CDK5 than CDK2) | – | –
10 to 100 | < 10 | CN1CCC(C(C)(O)c2ccc3cnc(Nc4ccc(-c5cncnc5)cc4F)cc3n2)CC1 (stereo not drawn) [Compound 342] | ++ (greater than 10-fold and less than or equal to 100-fold more active against CDK5 than CDK2) | – | –
> 1000 | 100 to 1000 | CN1CCC(C(C)(O)c2ccc3cnc(Nc4ccc(-c5cccnc5)cc4F)cc3n2)CC1 (stereo not drawn) [Compound 327] | ++ (greater than 10-fold and less than or equal to 100-fold more active against CDK5 than CDK2) | – | –
> 1000 | < 10 | CN1CCC(S(=O)(=O)c2ccc3cnc(Nc4ccc(-c5ccc(F)cc5)cc4F)cc3n2)CC1 [Compound 183, N-{3,4′-difluoro-[1,1′-biphenyl]-4-yl}-2-(1-methylpiperidin-4-ylsulfonyl)-1,6-naphthyridin-7-amine] | +++ (greater than 100-fold more active against CDK5 than CDK2) | – | –
> 1000 | 100 to 1000 | NC1CCN(C(=O)c2ccc3cnc(Nc4ccc(-n5cccn5)cc4F)cc3n2)C1 (stereo not drawn) [Compound 215, 2-(3-aminopyrrolidine-1-carbonyl)-N-[2-fluoro-4-(pyrazol-1-yl)phenyl]-1,6-naphthyridin-7-amine] | + (10-fold or less more active against CDK5 than CDK2) | – | –
100 to 1000 | 10 to 100 | O=S(=O)(c1ccc2cnc(Nc3ccc(-n4ccc(CO)n4)cc3F)cc2n1)C1CCNCC1 [Compound 123, [1-(3-fluoro-4-[[2-(piperidine-4-sulfonyl)-1,6-naphthyridin-7-yl]amino]phenyl)pyrazol-3-yl]methanol] | ++ (greater than 10-fold and less than or equal to 100-fold more active against CDK5 than CDK2) | – | –
100 to 1000 | 100 to 1000 | CN1CCN(S(=O)(=O)c2ccc3cnc(Nc4ccc(-n5ccc(CO)n5)cc4F)cc3n2)CC1 [Compound 245, [1-(3-fluoro-4-[[2-(4-methylpiperazin-1-ylsulfonyl)-1,6-naphthyridin-7-yl]amino]phenyl)pyrazol-3-yl]methanol] | + (10-fold or less more active against CDK5 than CDK2) | – | –
10 to 100 | < 10 | CN1CCC(S(=O)(=O)c2ccc3cnc(Nc4cccc(C5CC5)c4)cc3n2)CC1 [Compound 274] | +++ (greater than 100-fold more active against CDK5 than CDK2) | – | –
